This is an account of results in US6306879A, “Stable aqueous solution of 3-(1-oxo-1,3-dihydroisoindol-2-yl)-piperidine-2-6-dione” (Gruenenthal GmbH, priority 1999, dated 2001).

The conditions of data set [1]: Arch. Pharm. 321, 371 (1988); cited from earlier work.
Data set [2] has as its system cutaneous lupus erythematodes, pyoderma gangrenosum, urogenital ulcers in Bechet's syndrome, ulcerations in those infected with HIV. Particulars: without resulting in general immunosuppression; cited from earlier work.
Data set [3] relates to severe aphthous stomatitis. The note with it: cited from earlier work.
Data set [4] in a line: Stability testing of the EM 12 solution over 2 weeks. The data set is classed as physicochemical. The note with it: after 2 weeks; 200 μg/ml in 5% glucose, pH 5.5, room temperature. An excerpt: The solution was stored at room temperature. The pH of the final solution was 5.5.
Portions of the solutions were repeatedly taken as samples for analysis over a period of 2 weeks.

Data set [5] has as its system IL-12 production of LPS-activated monocytes. As to the kind of experiment: IL-12 production of LPS-activated monocytes (sandwich ELISA). The data set is classed as cell-based. The note with it: LPS-activated human monocytes. How it is done: (§1) In order to investigate the immunomodulatory efficacy of the solutions produced, human monocytes were isolated from peripheral blood mononuclear cells (PBMCs) and were activated with bacterial LPS (lipopolysaccharide). The concentration of TNF-α and IL-12 in the supernatant liquors from all cell cultures was determined by means of sandwich ELISAs (Biosource Europe, Fleurus, Belgium).
On the technique in general: In an ELISA, binding on a coated surface is turned into a signal by an enzyme label.

The test system of data set [6] is TNF-α production of LPS-activated monocytes. As to the kind of experiment: TNF-α production of LPS-activated monocytes (sandwich ELISA). The data set is classed as cell-based. The note with it: LPS-activated human monocytes. How it is done: as §1
The nature of data set [7]: Spontaneous hydrolysis of EM 12 in aqueous solution. The format is physicochemical.

In the case of `O=C1CCC(N2C(=O)c3ccccc3C2=O)C(=O)N1` (centres unmarked) [Thalidomide, 2-(2,6-dioxo-piperidin-3-yl)-isoindole-1,3-dione], the solubility in water result in data set [1] is “low”. In addition, the efficacy entry in data set [2] is reported as “good efficacy”. Also, the “efficacy vs classical immunosuppressants” value in data set [3] is reported as “superior”.

Consider `O=C1CCC(N2Cc3ccccc3C2=O)C(=O)N1` (racemic) [EM 12, 3-(1-oxo-1,3-dihydroisoindol-2-yl)-piperidine-2,6-dione], for which the “EM 12 present in solution after storage” value in data set [4] is “still present”. In addition, the “biological efficacy after storage” value in data set [4] is “retained its full biological efficacy”. In addition, the “IL-12 concentration in supernatant” value in data set [5] (EM 12 2 μg/ml) was determined as 528 pg/mL; in data set [5] (EM 12 10 μg/ml), 464 pg/mL. In addition, the figures for the “TNF-α concentration in supernatant” value in data set [6] (EM 12 2 μg/ml) and in data set [6] (EM 12 10 μg/ml) were 9915 pg/mL and 9548 pg/mL, respectively. Moreover, the spontaneous hydrolysis result in data set [7] (aqueous EM 12 solution, pH less than or equal to 5.5) was “does not occur”. Further, in data set [7] (aqueous solutions), the “tendency to undergo spontaneous hydrolysis” value is reported as “tendency of EM 12 to undergo spontaneous hydrolysis”.
